Values quoted from earlier work, collected in patent US7858598B2, “Reagents for detection of hypochlorous acid” (Morningside Ventures Limited & Versitech Limited, priority 2007, dated 2010).

pKa: 7.6
SMILES: OCl [hypochlorous acid]
